One compound from patent publication US6177475A, “Methods of using integrin modulators for treatment of inflammation” (priority 1997, dated 2001) can be followed below.

The test system of one assay is platelets (GP IIb/IIIa). Kind of assay: Platelet aggregation in platelet-rich plasma (turbidimetric). It counts as cell-based. As to conditions: 1:1 mixture of E- and Z-stereoisomers, read-out: IC50 for inhibition of platelet aggregation in PRP. On the procedure:
Platelet aggregation was measured turbidimetrically on a standard platelet aggregometer equipped with a recorder. Samples of platelet-rich plasma (PRP) were standardized with respect to the cell density (3×10^8per ml); maximal light transmission (LT) was calibrated with platelet-poorplasma (PPP). Aliquots of PRP (0.25 ml in glass cuvettes) were stirred in the cell of the device (1000 rpm, 37° C.) with Ajoene (0-100 micromoles per liter final concentration) for 1 min., followed by addition of the aggregation stimuli. (Unless specified otherwise, all the experiments described in this Application were performed with Ajoene that represented a 1:1 mixture of E- and Z-stereoisomers.) LT increments were traced for 5 min. Maximal rate of aggregation was derived from the slope of each curve; IC50 for Ajoene was determined by a method such as that described in Vrzheshch, et al., Cell Response Kinetics: the Phenomenon of Supercooperativity in Aggregation of Human Platelets, 66 Thrombos. Res. 537, 1992.
The requirement of integrins for the formation of cell-to-cell contacts in each of these systems has long been established. It is known that in platelets the relevant integrin is GP IIb/IIIa (β3). […]

In assay [1] the test system is neutrophils (β2 integrins). Kind of assay: N-formyl-L-methionyl-L-leucyl-L-phenylalanine-stimulated neutrophil aggregation. The class given is cell-based. On the procedure: Neutrophil aggregation was assayed as described above for the platelet system, with some modifications. Freshly isolated neutrophils were finally suspended in a buffer (120 mM NaCl, 4 mM KCl, 10 mM dextrose, 2 mM CaCl2·2H2 O, 2 mM MgCl2·6H2 O, and 20 mM Tris; pH 7.4) to the final density of 10^7 cells per ml. Aliquots of neutrophil suspension (0.25 ml in siliconized glass cuvettes; 10^7 cells per ml) were stirred in the cell of the aggregometer with 5 micrograms per ml cytochalasin B (1000 rpm, 37° C.) for 1 min. […] Maximum LT (100%) was calibrated with the same buffer.
The requirement of integrins for the formation of cell-to-cell contacts in each of these systems has long been established. It is known that in platelets the relevant integrin is GP IIb/IIIa (β3). Neutrophil aggregation is underlain by interactions of β2 integrins (e.g., LFA-1 and/or Mac-1) with their surface counterstructures, while cohesion of T-cells is supported by both β2 integrins and fibronectin-binding β1 integrins (e.g., VLA-4 and VLA-5).

A further assay deals with HSV-2 strain G. In words: Herpes simplex virus infection of WI-38 fibroblasts (ELISA for HSV antigens). The class given is cell-based. Conditions: Human alphaherpesvirus 2, WI-38, 24 hours. On the procedure: The effect on herpes simplex virus (HSV) infection was assessed using human embryonic lung fibroblast line WI-38 and HSV-2 strain G (derived from a human with the genital infection). Semiconfluent fibroblast monolayers grown in 96-well culture plates (10^5 cells per well) were exposed to serial dilutions of Ajoene or vehicle control, followed immediately by addition of HSV-2 (5000 CCID50 per well). After 24 hours of culturing, the supernatants were examined by ELISA for the content of HSV antigens.

In assay [2] the test system is human sperm / zona-free hamster oocytes. In words: Hamster oocyte penetration assay with capacitated human sperm. It counts as cell-based. Conditions: 200 micromoles per l; 30 min pretreatment of sperm and oocytes. As to the method: The activity of Ajoene in the hamster oocyte penetration assay was tested. This assay is routinely used to test the ability of capacitated human sperm to penetrate oocytes.
To obtain oocytes, mature hamsters (on day 1 of the estrous cycle) were injected intraperitoneally with 40 International Units (IU) pregnant mare serum gonadotropin (PMSG), followed by 40 IU human chorionic gonadotropin (HCG) 55 hours late. After 16 hours, the animals were sacrificed by intracardiac injection of 0.1 ml T61 (euthanizing agent), the oviducts were removed, and the cumulus mass was collected. Cumulus cells were removed by hyaluronidase treatment, and the freed oocytes were transferred into a watchglass containing 3 ml Biggers-Whitter-Whittingham (BWW) medium supplemented with human serum albumin (HSA) (BWW/HSA; pH 7.5). […]
Human sperm was from a donor with known fertility (No. 113). […] A small portion of the original sample was analyzed (computer-assisted sperm analysis) using the Cell-Soft package. […] The swim-up was collected (about 0.5 ml), the cells were counted (Makler chamber), and their motility determined (%). […] Thereafter, motility and cell density were determined once again, and the sample was divided into three equal portions, each to be subjected to appropriate treatment. […]

In another assay the test system is melanoma B16 cells. Kind of assay: Experimental metastasis, lung colonization by melanoma B16 cells. The class given is in vivo, C57BL/6 mice. Conditions: B16 cells pretreated 30 min; 200 micromoles per liter; 3 weeks. On the procedure: A suspension of 10^5 melanoma B16 cells was pretreated for 30 min with Ajoene, and the suspension (including Ajoene) was injected intravenously into male C57BL/6 mice. The mice were sacrificed 3 weeks post-injection, and their lungs subjected to microscopic examination.

For the compound `C=CCSSC=CC[S+]([O-])CC=C` (stereo not shown) [Ajoene, 4,5,9-trithiadodeca-1,6,11-triene-9-oxide], the results for the IC50 with platelets (GP IIb/IIIa) and with HSV-2 strain G were approximately 50 µM and 6 µM, respectively. For the same compound, the IC100 was approximately 10 µM in assay [1] (Neutrophil, stimulus N-formyl-L-methionyl-L-leucyl-L-phenylalanine 10^-7 M) and 17 µM in the assay with HSV-2 strain G (read-out: concentration completely preventing HSV infection). Moreover, the “deaggregation of aggregated neutrophils” value in assay [1] (added to aggregated neutrophils) is “caused rapid deaggregation”. Moreover, the “Penetration (penetrated oocytes / total oocytes)” value in assay [2] turned out to be 0%. For the same compound, the “prevention of lung colonization” value in the assay with melanoma B16 cells is “prevented lung colonization”.
